Source: ChEMBL document CHEMBL6177954, “Identification of imidazo[1,2-a]pyridine-3-amine as a novel drug-like scaffold for efficious ferroptosis inhibition in vivo” (Eur J Med Chem, 2025)
The source made the active and inactive calls. The calls are words filed in the database; no cut-off is given here.

Columns and labels:
SH-SY5Y [1] = experiment: Anti-ferroptosis activity against RSL3-induced ferroptosis in human SH-SY5Y cells assessed as reversal of ferroptosis by measuring cell viability measured after 48 hrs by MTT assay; format: functional, cell-based
[2] = Metal chelating activity assessed as compound-Fe3+ complex formation by UV-Vis absorption spectra analysis
[3] = Metal chelating activity assessed as compound-Fe2+ complex formation by UV-Vis absorption spectra analysis
[4] = Antioxidant activity assessed as DPPH radical scavenging activity measured after 30 mins in dark by (DPPH) bleaching assay; format: functional
[5] = Free radical trapping antioxidant activity in di-tert-undecyl hyponitrite (DTUN) trigged STY-BODIPY-embedded egg phosphatidylcholine liposomes assessed as inhibition of phospholipid peroxidation by measuring inhibition rate constant of STY-BODIPY at 1 uM by fluorescence-enabled inhibited autoxidation method (FENIX); format: functional
L02 = experiment: Cytotoxicity against human LO2 cells at 30 uM measured after 48 hrs incubation by MTT assay; format: toxicity, cell-based; details: l02, 48 h
[6] = Cytotoxicity against human HUVEC at 30 uM measured after 48 hrs incubation by MTT assay; format: toxicity, cell-based; details: huve
HT-1080 [7] = experiment: Anti-ferroptosis activity against RSL3-induced ferroptosis in human HT-1080 cells assessed as reversal of ferroptosis by measuring cell viability measured after 48 hrs by MTT assay; format: functional, cell-based
OS-RC-2 = experiment: Anti-ferroptosis activity against RSL3-induced ferroptosis in human OS-RC-2 cells assessed as reversal of ferroptosis by measuring cell viability measured after 48 hrs by MTT assay; format: functional, cell-based
HT-1080 [8] = experiment: Prevention of RSL3-induced ferroptosis morphological changes in human HT-1080 cells assessed as shrinkage, swelling, and membrane rupture measured up to 48 hrs; format: functional, cell-based
SH-SY5Y [9] = experiment: Prevention of TSZ-induced necroptosis in human SH-SY5Y cells assessed as cell viability at 5 uM measured after 48 hrs by MTT assay; format: functional, cell-based
SH-SY5Y [10] = experiment: Prevention of STS-induced apoptosis in human SH-SY5Y cells assessed as cell viability at 5 uM measured after 48 hrs by MTT assay; format: functional, cell-based
SH-SY5Y [11] = experiment: Prevention of RSL3-induced ferroptosis in human SH-SY5Y cells assessed as cell viability at 5 uM measured after 48 hrs by MTT assay; format: functional, cell-based
SH-SY5Y [12] = experiment: Anti-ferroptotic activity against RSL3 induced human SH-SY5Y cells inhibition of RSL3 induced in MDA level at 1.5 uM measured after 16 hrs by lipid peroxidation MDA assay; format: functional, cell-based
SH-SY5Y [13] = experiment: Anti-ferroptotic activity against RSL3 induced human SH-SY5Y cells inhibition of RSL3 induced in LPO accumulation at 1.5 uM measured after 16 hrs by BODIPY581/591 based flow cytometric analysis; format: functional, cell-based
SH-SY5Y [14] = experiment: Anti-ferroptotic activity against RSL3 induced human SH-SY5Y cells inhibition of RSL3 induced in LPO accumulation at 1.5 uM measured after 16 hrs by DCFH-DA based confocal laser scanning microscopic (CLSM) imaging analysis; format: functional, cell-based
[15] = Metabolic stability in rat liver homogenate assessed as half life; format: ADME, tissue-based
[16] = Plasma stability in human plasma assessed as half life; format: ADME, cell-free
[17] = Plasma stability in rat plasma assessed as half life; format: ADME, cell-free
[18] = Metabolic stability in rat liver homogenate assessed as recovery measured after 12 hrs; format: ADME, tissue-based; details: read-out: Drug recovery
[19] = Plasma stability in human plasma assessed as recovery measured after 12 hrs; format: ADME, cell-free; details: read-out: Drug recovery
[20] = Plasma stability in rat plasma assessed as recovery measured after 12 hrs; format: ADME, cell-free; details: read-out: Drug recovery
Mus musculus [21] = experiment: Protection against middle cerebral artery occlusion (MCAO)-induced Balb/c mouse assessed as reduction in infarct volume in brain at 20 mg/kg, iv (tail vein) measured for 24 hrs by TTC staining (reference value: 50.08%); format: functional; set-up: scale not given: the % may be the effect or the level left
[22] = Toxicity in Balb/c mouse assessed as histopathological changes in heart at 20 mg/kg, iv (tail vein) measured for 24 hrs by H and E staining based analysis; format: organism-based; details: in vivo
[23] = Toxicity in Balb/c mouse assessed as histopathological changes in liver at 20 mg/kg, iv (tail vein) measured for 24 hrs by H and E staining based analysis; format: organism-based; details: in vivo
[24] = Toxicity in Balb/c mouse assessed as histopathological changes in spleen at 20 mg/kg, iv (tail vein) measured for 24 hrs by H and E staining based analysis; format: organism-based; details: in vivo
[25] = Toxicity in Balb/c mouse assessed as histopathological changes in lung at 20 mg/kg, iv (tail vein) measured for 24 hrs by H and E staining based analysis; format: organism-based; details: in vivo
[26] = Toxicity in Balb/c mouse assessed as histopathological changes in kidney at 20 mg/kg, iv (tail vein) measured for 24 hrs by H and E staining based analysis; format: organism-based; details: in vivo
Mus musculus [27] = experiment: Protection against middle cerebral artery occlusion (MCAO)-induced Balb/c mouse assessed as reduction in MDA level in lesioned hemisphere at 20 mg/kg, iv (tail vein) measured for 24 hrs by lipid peroxidation MDA assay; format: functional, organism-based
Mus musculus [28] = experiment: Protection against middle cerebral artery occlusion (MCAO)-induced Balb/c mouse assessed as reduction in PTGS2 mRNA level in lesioned hemisphere at 20 mg/kg, iv (tail vein) measured for 24 hrs by qRT-PCR analysis; format: functional, organism-based

COc1ccc(Nc2c(-c3cc(Cl)cc(Cl)c3)nc3cc(COCc4cccc(Cl)c4)ccn23)cc1Cl
IC50 (SH-SY5Y [1]): 802 nM

COc1ccc(Nc2c(C3CCCCC3)nc3ccccn23)cc1Cl
IC50 (SH-SY5Y [1]): 97 nM | Activity [2]: inactive | Activity [3]: inactive | Activity [4]: Dose-dependent-effect | Ki [5]: 2 10^4/M/s | Activity (L02): Non-toxic | Activity [6]: Non-toxic | Activity (HT-1080 [7]): Active | Activity (OS-RC-2): Active | Activity (HT-1080 [8]): Active | Activity (SH-SY5Y [9]): inactive | Activity (SH-SY5Y [10]): inactive | Activity (SH-SY5Y [11]): Active | Activity (SH-SY5Y [12]): Active | Activity (SH-SY5Y [13]): Active | Activity (SH-SY5Y [14]): Active | half-life [15]: > 12 h | half-life [16]: > 12 h | half-life [17]: > 12 h | remaining at 12 h [18]: 91.1% | remaining at 12 h [19]: 100% | remaining at 12 h [20]: 100% | Activity (Mus musculus [21]): 25.28% | Activity [22]: Non-toxic | Activity [23]: Non-toxic | Activity [24]: Non-toxic | Activity [25]: Non-toxic | Activity [26]: Non-toxic | Activity (Mus musculus [27]): Active | Activity (Mus musculus [28]): Active

COc1ccc(Nc2c(-c3ccccc3Cl)nc3ccc4ccccc4n23)cc1Cl
IC50 (SH-SY5Y [1]): 65 nM

COc1ccc(Nc2c(-c3c(Cl)cc(Cl)cc3Cl)nc3ccc4ccccc4n23)cc1Cl
IC50 (SH-SY5Y [1]): 22 nM | half-life [15]: < 0.08 h | half-life [16]: < 0.08 h | half-life [17]: < 0.08 h | remaining at 12 h [18]: 32.2% | remaining at 12 h [19]: 47.9% | remaining at 12 h [20]: 42.3%

c1ccc2c(c1)ccc1nc(-c3ccsc3)c(NC3CCCCC3)n12
IC50 (SH-SY5Y [1]): 426 nM

FC(F)(F)c1ccccc1-c1nc2ccc3ccccc3n2c1NC1CCCCC1
IC50 (SH-SY5Y [1]): 104 nM

Clc1cccc(-c2nc3ccccn3c2NC23C[C@H]4C[C@@H](C2)C[C@@H](C3)C4)c1
IC50 (SH-SY5Y [1]): > 30000 nM

COc1ccc(Nc2c(C3CCCCC3)nc3ccc(F)cn23)cc1Cl
IC50 (SH-SY5Y [1]): 80 nM

Cc1cn2cccc(-c3ccccc3N)c2n1
IC50 (SH-SY5Y [1]): > 100000 nM

Clc1cc(Cl)cc(CNc2c(-c3cc(Cl)cc(Cl)c3)nc3ccc4ccccc4n23)c1
IC50 (SH-SY5Y [1]): 766 nM

Clc1cccc(CNc2c(-c3cccc(Cl)c3)nc3ccc4ccccc4n23)c1
IC50 (SH-SY5Y [1]): 287 nM

Cc1ccc2nc(-c3cccc(Cl)c3)c(NC(C)(C)C)n2c1
IC50 (SH-SY5Y [1]): > 10000 nM

COc1ccc(Nc2c(-c3csc4ccccc34)nc3ccccn23)cc1Cl
IC50 (SH-SY5Y [1]): 195 nM

CC(C)(C)Nc1c(-c2ccoc2)nc2ccccn12
IC50 (SH-SY5Y [1]): > 10000 nM

c1ccn2c(NC34C[C@H]5C[C@@H](C3)C[C@@H](C4)C5)c(-c3cscn3)nc2c1
IC50 (SH-SY5Y [1]): > 30000 nM

c1coc(CNc2c(-c3cscn3)nc3ccccn23)c1
IC50 (SH-SY5Y [1]): 2640 nM

Clc1cc(Cl)cc(-c2nc3ccccn3c2NC2CCCCC2)c1
IC50 (SH-SY5Y [1]): 625 nM

Cc1ccc2nc(-c3ccc(N4CCOCC4)cc3)c(NC3CCCCC3)n2c1
IC50 (SH-SY5Y [1]): > 10000 nM

COc1ccc(-c2nc3ccccn3c2NC23C[C@H]4C[C@@H](C2)C[C@@H](C3)C4)cc1
IC50 (SH-SY5Y [1]): 1870 nM

CCOC(=O)c1ccc(NC2CCCCC2)c(N)c1
IC50 (SH-SY5Y [1]): 20 nM | Activity (SH-SY5Y [11]): Active | half-life [15]: 0.67 h | half-life [16]: > 12 h | half-life [17]: 2.1 h | remaining at 12 h [18]: 7.1% | remaining at 12 h [19]: 94.1% | remaining at 12 h [20]: 0%

FC(F)(F)c1ccccc1-c1nc2ccccn2c1NCc1ccco1
IC50 (SH-SY5Y [1]): 412 nM

Oc1ccccc1-c1cn2ccccc2n1
IC50 (SH-SY5Y [1]): 9880 nM

Oc1ccccc1-c1cccn2c(Cc3ccccc3)c(-c3ccccc3)nc12
IC50 (SH-SY5Y [1]): > 30000 nM

COc1ccc(-c2nc3ccccn3c2NC(C)(C)C)cc1
IC50 (SH-SY5Y [1]): > 30000 nM

CCOC(=O)CNc1c(-c2ccc(OC)cc2)nc2ccccn12
IC50 (SH-SY5Y [1]): 3940 nM

Cc1ccccc1-c1cn2ccccc2n1
IC50 (SH-SY5Y [1]): > 100000 nM

Clc1cccc(CNc2c(-c3cccc(Cl)c3)nc3ccccn23)c1
IC50 (SH-SY5Y [1]): 181 nM

CC(=O)N(O)CCCCCNC(=O)CCC(=O)N(O)CCCCCNC(=O)CCC(=O)N(O)CCCCCN
Activity [2]: Active | Activity [3]: Active

COc1ccc(-c2nc3ccccn3c2NC2CCCCC2)cc1
IC50 (SH-SY5Y [1]): > 10000 nM

COc1ccc(Nc2c(-c3cc(Cl)cc(Cl)c3)nc3ccc(N4CCN(C)CC4)cn23)cc1Cl
IC50 (SH-SY5Y [1]): 84 nM

Oc1ccc(-c2cn3ccccc3n2)c(O)c1
IC50 (SH-SY5Y [1]): 2380 nM

Oc1ccccc1-c1nc2ccccn2c1Cc1ccccc1
IC50 (SH-SY5Y [1]): 5210 nM

Clc1cc(Cl)cc(CNc2c(-c3ccoc3)nc3ccccn23)c1
IC50 (SH-SY5Y [1]): 1560 nM

Clc1cc(Cl)cc(-c2nc3ccc4ccccc4n3c2NC2CCCCC2)c1
IC50 (SH-SY5Y [1]): 920 nM

COc1ccc(Nc2c(-c3ccsc3)nc3ccccn23)cc1Cl
IC50 (SH-SY5Y [1]): 476 nM

Clc1cc(Cl)cc(CNc2c(-c3cscn3)nc3ccccn23)c1
IC50 (SH-SY5Y [1]): 2030 nM

COc1ccc(Nc2c(-c3ccoc3)nc3ccccn23)cc1Cl
IC50 (SH-SY5Y [1]): 99 nM | Activity [2]: inactive | Activity [3]: inactive | Activity [4]: Dose-dependent-effect | Ki [5]: 1.6 10^4/M/s | Activity (L02): Non-toxic | Activity [6]: Non-toxic | Activity (HT-1080 [7]): Active | Activity (OS-RC-2): Active | Activity (HT-1080 [8]): Active | Activity (SH-SY5Y [9]): inactive | Activity (SH-SY5Y [10]): inactive | Activity (SH-SY5Y [11]): Active | Activity (SH-SY5Y [12]): Active | Activity (SH-SY5Y [13]): Active | Activity (SH-SY5Y [14]): Active | half-life [15]: > 12 h | half-life [16]: > 12 h | half-life [17]: > 12 h | remaining at 12 h [18]: 95.8% | remaining at 12 h [19]: 100% | remaining at 12 h [20]: 100%

CCOC(=O)CNc1c(-c2ccccc2)nc2ccccn12
IC50 (SH-SY5Y [1]): 2930 nM

Clc1cc(Cl)cc(CNc2c(-c3cc(Cl)cc(Cl)c3)nc3ccccn23)c1
IC50 (SH-SY5Y [1]): 1930 nM

Cc1cn2cccc(-c3ccccc3O)c2n1
IC50 (SH-SY5Y [1]): > 30000 nM

Nc1ccccc1-c1cn2ccccc2n1
IC50 (SH-SY5Y [1]): > 10000 nM

c1ccn2c(NC34C[C@H]5C[C@@H](C3)C[C@@H](C4)C5)c(C3CCCCC3)nc2c1
IC50 (SH-SY5Y [1]): > 10000 nM
